Here are results for two compounds from article PMC2921948 (Clinical cancer research : an official journal of the …, 2010).

Like-named read-outs stand apart in the source and are kept apart here.

Experiment [1] has as its target T1, human serum albumin (HSA) (Homo sapiens, UniProt P02768). Briefly: fluorescence polarization displacement of dansyl sarcosine. Type of experiment: binding. A general note: Polarisation of emitted light reports the rotation of a fluorescent probe.
Experiment [2] addresses T1, human serum albumin (HSA). The description is as above. Type of experiment: binding. This is another data set of the same source.

T1 sequence (P02768 25-609): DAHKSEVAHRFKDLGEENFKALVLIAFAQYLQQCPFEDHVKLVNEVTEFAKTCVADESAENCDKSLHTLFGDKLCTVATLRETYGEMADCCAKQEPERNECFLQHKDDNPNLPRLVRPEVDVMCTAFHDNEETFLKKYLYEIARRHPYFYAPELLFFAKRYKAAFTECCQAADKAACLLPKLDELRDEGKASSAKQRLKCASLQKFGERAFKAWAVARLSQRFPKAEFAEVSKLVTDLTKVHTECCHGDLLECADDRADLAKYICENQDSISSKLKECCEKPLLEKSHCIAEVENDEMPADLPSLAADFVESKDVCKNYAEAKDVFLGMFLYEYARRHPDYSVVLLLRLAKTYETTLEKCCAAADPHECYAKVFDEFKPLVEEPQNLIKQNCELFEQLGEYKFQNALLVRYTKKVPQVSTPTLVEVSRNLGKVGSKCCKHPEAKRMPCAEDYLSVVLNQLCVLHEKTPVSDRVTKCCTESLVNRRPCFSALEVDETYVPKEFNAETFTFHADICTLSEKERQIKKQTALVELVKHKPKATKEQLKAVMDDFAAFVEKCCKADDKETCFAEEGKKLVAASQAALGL

In general, IC50 refers to the concentration needed to halve the response being measured. Read a high IC50 as weaker potency. For the compound `CC1(C)CCC(c2ccc(Cl)cc2)=C(CN2CCN(c3ccc(C(=O)NS(=O)(=O)c4ccc(N[C@H](CCN5CCOCC5)CSc5ccccc5)c(S(=O)(=O)C(F)(F)F)c4)cc3)CC2)C1` [ABT-263], the IC50 in experiment [1] amounted to 37 µM.

In the case of `CN(C)CC[C@H](CSc1ccccc1)Nc1ccc(S(=O)(=O)NC(=O)c2ccc(N3CCN(Cc4ccccc4-c4ccc(Cl)cc4)CC3)cc2)cc1[N+](=O)[O-]` [ABT-737], the IC50 in experiment [2] was 711 µM.
